# Experimental data from US20200306222A1, “Dosing Regimen of Siponimod” (NOVARTIS AG, priority 2017, published 2020).
# How the values were obtained:
# [1] = i.v. (bolus) cardiovascular safety studies; format: in vivo, guinea pig, rat and rabbit; settings: similar to the effects by oral route
# From the text: (§1) The safety of the i.v. route in humans was supported by a local tolerance study in rabbit and cardiovascular safety studies in guinea pig, rat and rabbit using i.v. (bolus) route.
# CYP2C9, CYP3A4 = settings: humans; cited from earlier work
# [2] = tested on: Absolute Lymphocyte Count (ALC); assay: multiple ascending dosing study in healthy volunteers, decline of Absolute Lymphocyte Count; format: in vivo, human
# Protocol: (§2) In another study in healthy subjects siponimod was administered in multiple doses, i.e. 0.3, 1, 2.5, 10 and 20 mg, over 28 days (multiple ascending dosing study, MAD study).
# [3] = randomized placebo-controlled study of siponimod in intracerebral hemorrhage (ICH) patients; format: in vivo, human; settings: compared to placebo
# From the text: The clinical study investigates the initial efficacy and safety of siponimod administered on top of standard-of-care compared to placebo in patients with intracerebral hemorrhage (ICH). This is a randomized, doubled-blinded, placebo-controlled, parallel group study of siponimod on top of standard-of-care for ICH, consisting of 3 epochs: Screening/Baseline, Treatment, and Follow-Up (see FIG. 1).
# Patients fulfilling all eligibility criteria are randomly allocated to one of two treatment groups in a ratio of 1:1. […] These patients continue to be followed for the remainder of the assessment schedule (Table 3). i.v. Dose Titration
# The siponimod i.v. dosing regimen is as follows: • Day 1: 0.25 mg over 6 hours (×2), then 0.5 mg over 6 hours, then 0.75 mg over 6 hours for a total Day 1 dose of 1.75 mg • Day 2: 1.25 mg over 6 hours, then 2 mg over 6 hours, then 2.5 mg over 6 hours (×2) for a total Day 2 dose of 8.25 mg • Days 3 through Day 7: 2.5 mg over 6 hours (×4) for a total daily dose of 10 mg. • If patient can swallow then the administration from Day 8 to Day 14 is oral.
# This is a randomized, doubled-blinded, placebo-controlled, parallel group study of siponimod on top of standard-of-care for ICH, consisting of 3 epochs: Screening/Baseline, Treatment, and Follow-Up (see FIG. 1).
# Patients are assigned to one of the following 2 treatment arms in a ratio of 1:1. • Study treatments are defined as: • Siponimod • Day 1: i.v. 0.25 mg over 6 hours (×2), then 0.5 mg over 6 hours, then 0.75 mg over 6 hours for a total Day 1 dose of 1.75 mg • Day 2: i.v. 1.25 mg over 6 hours, then 2 mg over 6 hours, then 2.5 mg over 6 hours (×2) for a total Day 2 dose of 8.25 mg • Days 3 through 7: i.v. 2.5 mg over 6 hours (×4) for a total daily dose of 10 mg • Days 8 through 14; 10 mg p.o. QD
# [4] = siponimod single dose study (SAD study) in healthy volunteers; format: in vivo; settings: healthy subjects
# [5] = i.v. versus oral absolute bioavailability study in healthy subjects (CBAF312A2126), PK and PD; format: in vivo, human
# Protocol: A comparison of bradyarrhythmic effects (HR, AVB, SP) of a 1 mg oral dose from previous studies and a 1 mg/day i.v. dose infused over 24 h in healthy subjects supported the hypothesis that such effects are related to the slope of the concentration-time curve.
# In said study with siponimod administered intravenously, PK and PD were determined. […] This finding was consistent with previous oral administrations of 0.25 mg (starting dose of the oral initial period dosing regimen).
# as §1
# [6] = tested on: peripheral lymphocyte counts; assay: general pharmacokinetics/pharmacodynamics of siponimod (lymphocyte counts, half-life, brain penetration); format: in vivo
# Protocol: (§3) Siponimod is a second generation S1P receptor modulator that reduces peripheral lymphocyte counts approximately 4-6 hours (h) after the first dose. […] Siponimod's mode of action is believed to include S1P1-mediated prevention of effector lymphocyte recirculation from lymphatic tissue to sites of inflammation, such as the central nervous system (CNS). In addition, there may be direct beneficial effects in the CNS mediated by S1P1 and/or S1P5. […] Thus, siponimod may display additional beneficial activities in the CNS.
# [7] = as above; format: in vivo; settings: in vivo
# Protocol: as §3
# [8] = multiple-dose titration clinical study in healthy subjects, daily chronotropic effects; format: in vivo, human
# Protocol: S1P receptor modulators, as mentioned above, are known to cause dose dependent transient decrease in heart rate within 2-3 hours of drug intake (Legangneux et al. 2012, Hoch et al. 2014). In order to evaluate on how to best mitigate the bradyarrhythmic risk of siponimod, a multiple-dose titration clinical study in healthy subjects was run.
# The primary objective of this study was to measure the daily chronotropic effects of two siponimod dose-titration regimens (from 0.25 mg to 10 mg; Dose Titration (DT) 1# and 2#, respectively) compared to daily chronotropic effects of oral siponimod 10 mg (fixed dose, once daily) and placebo over 12 days. The heart rate (HR) changes have been compared between subjects exposed to 10 mg siponimod once daily (QD) with or without 2 different up-titration schemes. The titration scheme of this study was: • DT 1#: Day 1: 0.25 mg; Day 2: 0.25 mg; Day 3: 0.25 mg; Day 4: 0.5 mg; Day 5: 1.0 mg; Day 6: 2.0 mg; Day 7: 4.0 mg; Day 8: 8.0 mg and from Day 9 to Day 12: 10.0 mg daily. • DT 2#: Day 1: 0.25 mg; Day 2: 0.25 mg; Day 3: 0.5 mg; Day 4: 0.75 mg; Day 5: 1.25 mg; Day 6: 2.0 mg; Day 7: 3.0 mg; Day 8: 5.0 mg; from Day 9 to Day 12: 10.0 mg daily.
# This effect was maintained until end of treatment on Day 12. […] It was then concluded that both titration regimens effectively attenuated the initial bradycardia observed on Day 1 of treatment with siponimod 10 mg daily fixed-dose.
# [9] = clinical study of siponimod pharmacokinetics in CYP2C9 poor metabolizers; format: in vivo, human
# From the text: In addition to the previously described benefits, the dosing regimen of the present disclosure has also the advantage to highly reduce the additional risks run by the CYP2C9 poor metabolizer.
# [10] = phase II dose finding study in relapsing-remitting multiple sclerosis (CBAF312A2201); format: in vivo, human; settings: RRMS patients
# Protocol: In a phase II dose finding study of siponimod in patients with relapsing-remitting multiple sclerosis (CBAF312A2201) safety, tolerability and efficacy on magnetic resonance imaging (MRI) brain lesion parameters were evaluated. The dose response curve for the MRI-based efficacy of siponimod given orally once daily compared with placebo was determined.
# The dose-response curve as defined by the primary endpoint, favored the upper part of this range, i.e. a dose in the range of siponimod 2 mg, since efficacy seemed to decrease with lower doses. Siponimod achieved positive results in a clinical trial for the treatment of RRMS patients (Selmaj et al., Lancet Neurol, 2013, 12, 756-767) and is currently being investigated in an ongoing phase III study (EXPAND) in patients with SPMS. The dose of 2 mg of siponimod was the chosen dose for this follow up phase III study.
# [11] = multiple ascending dosing study (MAD study) in healthy subjects, adverse events; format: in vivo, human; settings: maximum investigated multiple dose of 20 mg, over 28 days
# Protocol: as §2
smiles,measurement,setting,value
"CCc1cc(/C(C)=N/OCc2ccc(C3CCCCC3)c(C(F)(F)F)c2)ccc1CN1CC(C(=O)O)C1 [siponimod, 1-{4-[(1E)-N-{[4-cyclohexyl-3-(trifluoromethyl)benzyl]oxy}ethanimidoyl]-2-ethylbenzyl}-3-azetidine carboxylic acid]",cardiovascular effects,[1],Cmax-related transient cardiovascular effects
same,metabolizing enzymes,"CYP2C9, CYP3A4","mainly by CYP2C9, followed by CYP3A4"
same,% Emax0-12 h from Day 1 pre-dose,[2]; 0.3 mg dose group,41.9%
same,% Emax0-12 h from time-matched Day −1,[2]; 0.3 mg dose group,47.8%
same,% Emax0-12 h from Day 1 pre-dose,[2]; 1 mg dose group,71.3%
same,% Emax0-12 h from time-matched Day −1,[2]; 1 mg dose group,73.8%
same,"ALC decrease, chronic response",[2]; 2.5 mg,~70%
same,% Emax0-12 h from Day 1 pre-dose,[2]; 2.5 mg dose group,66.9%
same,% Emax0-12 h from time-matched Day −1,[2]; 2.5 mg dose group,67.5%
same,"ALC decrease, chronic response (plateau)",[2]; 10 mg,about 80%
same,% Emax0-12 h from Day 1 pre-dose,[2]; 10 mg dose group,83.7%
same,% Emax0-12 h from time-matched Day −1,[2]; 10 mg dose group,86.1%
same,% Emax0-12 h from Day 1 pre-dose,[2]; 20 mg dose group,84.8%
same,% Emax0-12 h from time-matched Day −1,[2]; 20 mg dose group,86.5%
same,acute ALC response,"[2]; Day 1 of treatment, between 0.3 mg and 10 mg dose",dose-dependent decline of ALC
same,"global functioning, modified Rankin Scale (mRS) score","[3]; Day 90 after ICH, 7 days i.v. with titration followed by 7 days p.o.",improves global functioning
same,development of perihematomal edema (PHE),[3]; between 24 hours and 14 days after initiation of treatment,decreases the development of perihematomal edema (PHE)
same,functional mobility,[3]; two week treatment,improves functional mobility of the affected body parts
same,safety and tolerability,[4]; 25 mg single dose,favorable safety and tolerability profile
same,single maximum tolerated dose (single MTD),[4]; single dose,25 mg
same,pharmacokinetics (PK) linearity,"[5]; human, in vivo",dose linear and time-independent pharmacokinetics
same,Tmax,"[5]; human, in vivo, 0.25 mg, oral, after dosing, read-out: median oral Tmax",8 h
same,"magnitude of PD (ALC) effects %Emax, i.v. versus oral",[5]; i.v. 0.25 mg over 3 hour and 1 mg over 24 hours,comparable to the effects after oral doses at the same dose levels
same,median i.v. Tmax,[5]; i.v. infusion 0.25 mg over 3 hours and 1 mg over 24 hours,at the end of the 3 hour and 24 hour infusions
same,cardiac safety profile,[5]; i.v. infusion 0.25 mg over 3 hours and 1 mg over 24 hours (4×0.25 mg/6 hours),excellent cardiac safety profile
same,geometric mean oral Cmax relative to mean i.v. Cmax (lower),[5]; oral versus i.v.,-48%
same,time to reduction of peripheral lymphocyte counts,[6]; after the first dose,4 to 6 h (h)
same,recovery of the baseline lymphocyte counts,[6]; after treatment withdrawal,within a week
same,blood brain barrier crossing,[6]; in vivo,readily crosses the blood brain barrier
same,half-life,[7],~30 h
same,reduction in heart rate vs. placebo,"[8]; Day 1, either titration regimen",no statistically significant reduction in heart rate vs. placebo
same,reduction in HR,"[8]; Days 3 to 7, DT 1# and DT 2#",minor reductions in HR
same,heart rates versus placebo,"[8]; by Day 9 until Day 12, both titration regimens",comparable to placebo
same,clinically significant bradycardia or AV conduction effects,"[8]; dose titration regimens DT 1# and DT 2# (0.25 mg to 10 mg), oral, 12 days",Neither DT 1# nor DT 2# resulted in clinically significant bradycardia or AV conduction effects
same,heart rates versus placebo,"[8]; non-titration regimen, 10 mg fixed dose once daily, throughout the study",considerable separation from placebo
same,bradyarrhythmia,[8]; starting dose of 0.25 mg of the 2 DT regimens,not associated with bradyarrhythmia
same,Tmax in poor versus extensive metabolizers,[9]; poor and extensive metabolizers,comparable
same,Cmax in poor versus extensive metabolizers,[9]; poor metabolizers,only slightly greater
same,AUC fold versus extensive metabolizers (CYP2C9*1*1),[9]; poor metabolizers (CYP2C9*2*3 and CYP2C9*3*3 genotypes),approximately 2 fold
same,MRI-based efficacy,[10]; 1.25 mg to 2 mg dose range,close to maximal efficacy
same,safety profile,[10]; 1.25 mg to 2 mg dose range,good safety profile
same,MRI-based efficacy,[10]; 10 mg orally once daily,little additional efficacy compared to 2 mg
same,safety profile,[10]; 10 mg orally once daily,worse safety profile
same,only relevant adverse event,[11],symptomatic bradycardia
